Test results from ChEMBL document CHEMBL1201862, “PubChem BioAssay data set” (2004).
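Assay format: 96-well plates, 48-hour exposure. GI50 is the concentration that inhibits growth by half.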 Active and inactive are the calls of the source. No stated cut-off is given here; in the data, active = GI50 up to about 1.1 µM and inactive = higher.

What was measured:
Test in all cases: NCI-60 cell line screen, 48 h
[1] = system: IGROV-1
[2] = system: SNB-19
[3] = system: TK-10
[4] = system: HL-60
[5] = system: Malme-3M
[6] = system: UO-31
[7] = system: MCF7
[8] = system: EKVX
[9] = system: PC-3
[10] = system: SN12C
[11] = system: NCI/ADR-RES
[12] = system: HT-29
[13] = system: OVCAR-8
[14] = system: HCT-116
[15] = system: 786-0
[16] = system: SK-MEL-2
[17] = system: T47D

Measured: GI50

CC1CCC2C(C)(C)CC3(C)CCC1C23O (configuration not stated)
inactive: [1] 14.6 µM | [2] 29.1 µM | [3] 17.7 µM | [4] 1.63 µM | [5] 13.3 µM | [6] 16.4 µM | [7] 15.8 µM | [8] 15.1 µM | [9] 13 µM | [10] 16.9 µM | [11] 14.6 µM | [12] 16.3 µM | [13] 17.2 µM | [14] 14.8 µM | [15] 15.6 µM | [16] 14.1 µM

NC1=NNC(=O)c2nnc3c(C(=O)O)cnn3c2S1
inactive: [1] > 100 µM | [2] > 100 µM | [3] > 100 µM | [4] > 100 µM | [5] > 100 µM | [6] > 100 µM | [8] > 100 µM | [10] > 100 µM | [12] > 100 µM | [13] > 100 µM | [14] > 100 µM | [15] > 100 µM

CC(=O)Nc1ccc(/C=C2\N=C(c3ccccc3)OC2=O)cc1
inactive: [1] > 31.6 µM | [2] > 100 µM | [3] > 100 µM | [4] 76.7 µM | [5] 6.1 µM | [6] > 100 µM | [8] > 100 µM | [10] 55 µM | [13] 6.32 µM | [14] 79.4 µM | [15] > 100 µM | [16] > 100 µM

O=C(Nc1ccc(Cl)cc1C(F)(F)F)C(=O)Nn1c(S)nc2ccccc2c1=O
inactive: [3] > 100 µM | [4] 60.5 µM | [6] > 100 µM | [7] > 100 µM | [9] > 100 µM | [17] > 100 µM | [10] > 100 µM | [11] > 100 µM | [12] > 100 µM | [13] > 100 µM | [14] > 100 µM | [15] > 100 µM | [16] > 100 µM

CCOC(=O)N(NC(=O)NC(C)C)c1ccccc1
inactive: [1] > 100 µM | [2] > 100 µM | [3] > 100 µM | [4] 60.1 µM | [5] > 100 µM | [6] > 100 µM | [7] > 100 µM | [8] > 100 µM | [9] > 100 µM | [10] > 100 µM | [11] > 100 µM | [12] > 100 µM | [13] > 100 µM | [14] > 100 µM | [15] > 100 µM | [16] > 100 µM

O=C1CCc2nc3ncccc3cc2C1
inactive: [1] 58.2 µM | [2] > 100 µM | [3] > 100 µM | [5] > 100 µM | [6] 79.8 µM | [8] > 100 µM | [9] > 100 µM | [17] > 100 µM | [10] > 100 µM | [11] > 100 µM | [14] 65.5 µM | [15] > 100 µM | [16] > 100 µM
